Experiments:
[1] = target: Factor Xa (Homo sapiens (Human), UniProt P00742); assay: Dose response assay for protease inhibitors: Factor Xa; format: biochemical; conditions: selectivity, Factor Xa over Factor XIa
Method in brief: (§1)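 Fluorogenic AMC-peptide cleavage in 20 mM Hepes pH 7.4, 150 mM NaCl, 0.02% Tween 20; 100 μM stock substrate dilution (Glp-Pro-Arg-AMC for thrombin/trypsin; Pro-Phe-Arg-AMC or Boc-Leu-Gly-Arg-AMC for Factor Xa). Enzyme diluted to 0.5 nM, added last to two-fold compound series; kinetic read at 30° C, 30 min (Factor Xa 60 min); IC50 fitted.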

[2] = tested on: Trypsin; assay: Dose response assay for protease inhibitors: trypsin; format: biochemical; conditions: selectivity, trypsin over Factor XIa
Method in brief: as §1

[3] = target: Factor XIa (Homo sapiens (Human), UniProt P03951); assay: Factor XIa enzyme inhibition assay (dose response, fluorogenic AMC substrate); format: biochemical; conditions: read-out: hFXIa IC50
Factor XIa, sequence (P03951 388-625): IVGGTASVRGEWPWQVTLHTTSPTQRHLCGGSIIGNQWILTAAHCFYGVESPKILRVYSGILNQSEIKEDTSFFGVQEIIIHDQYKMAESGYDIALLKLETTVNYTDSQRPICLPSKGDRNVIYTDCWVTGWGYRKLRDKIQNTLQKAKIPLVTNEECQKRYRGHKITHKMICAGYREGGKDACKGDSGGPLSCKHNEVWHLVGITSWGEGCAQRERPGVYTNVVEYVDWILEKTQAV
Factor XIa, sequence (P03951 19-387 partner): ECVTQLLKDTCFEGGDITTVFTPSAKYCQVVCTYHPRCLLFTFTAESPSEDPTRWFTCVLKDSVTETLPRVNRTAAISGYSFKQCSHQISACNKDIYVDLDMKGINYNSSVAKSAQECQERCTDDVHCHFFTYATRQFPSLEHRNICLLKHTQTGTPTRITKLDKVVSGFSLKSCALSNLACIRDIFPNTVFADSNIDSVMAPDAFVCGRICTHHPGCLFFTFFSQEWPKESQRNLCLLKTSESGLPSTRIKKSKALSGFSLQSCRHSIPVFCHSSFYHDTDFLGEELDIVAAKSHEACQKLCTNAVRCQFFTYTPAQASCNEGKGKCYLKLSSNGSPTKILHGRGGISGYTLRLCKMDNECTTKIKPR
Method in brief: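 Human FXIa at 0.25 nM final with 50 μM final PyroGlu-Pro-Arg-AMC in 20 mM Hepes pH 7.4, 150 mM NaCl, 0.02% Tween 20. Two-fold serial compound dilutions; fluorescence read every minute for 30 min at 30° C. IC50 from a four-parameter Hill fit.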

[4] = Metabolic stability in dog hepatocytes; format: in vitro ADME; conditions: pooled cryopreserved hepatocytes; beagle dog hepatocytes, 2 μM compound; read-out: Dog Hepatocyte Stability (t1/2)
Method: The following procedure was used to determine the stability of test compounds in beagle dog hepatocytes in a 96-well plate format. The test compounds, including the controls, imipramine and 7-ethoxycoumarin, were dissolved at 10 mM in DMSO, followed by further 5-fold dilution with DMSO to 2 mM. Pooled cryopreserved beagle dog hepatocytes were thawed and transferred into complete medium. Cells were gently centrifuged (700 rpm for 5 min) and the pellet rinsed with KHB (Krebs Henseleit buffer). Cells were resuspended, counted using Trypan blue, and adjusted to 1 million cells/mL in KHB buffer. The 2 mM compound stock solutions were diluted 10-fold with acetonitrile, followed by a further 50-fold dilution with KHB buffer. 200 μL of these compound solutions were transferred to 96-well polypropylene assay plates and an equal volume of the hepatocyte solution was added and mixed to initiate the reaction (final assay concentrations were 2 μM compound and 500,000 cells/mL). Assay plates were incubated at 37° C. in 5% CO2 with gentle agitation. 50 μL aliquots were removed at multiple time points out to 180 minutes and quenched with 6 volumes of cold acetonitrile (containing 250 ng/mL of carbutamide and chrysin as internal standards) to terminate the reaction and precipitate protein. Quenched samples were maintained on ice. The quenched samples were centrifuged at 2000×g (3100 rpm) for 10 minutes at 4° C. 50 μL aliquots of the supernatants were removed and diluted with 100 μL Milli-Q water to reduce the % organic content prior to bioanalysis by LC-MS/MS. Peak areas corresponding to the test compound were recorded. The compound remaining was calculated by comparing the peak area at each time point to time zero. Data were analyzed and results were calculated using Microsoft Excel 2010.

Factor Xa, sequence (P00742 235-488): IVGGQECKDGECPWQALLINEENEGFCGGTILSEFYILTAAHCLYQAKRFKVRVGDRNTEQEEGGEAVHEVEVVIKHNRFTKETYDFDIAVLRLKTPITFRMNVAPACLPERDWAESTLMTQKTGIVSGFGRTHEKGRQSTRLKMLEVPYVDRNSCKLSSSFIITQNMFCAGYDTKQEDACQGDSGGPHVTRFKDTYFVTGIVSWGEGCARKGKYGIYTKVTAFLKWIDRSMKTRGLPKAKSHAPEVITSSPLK
Factor Xa, sequence (P00742 41-179 partner): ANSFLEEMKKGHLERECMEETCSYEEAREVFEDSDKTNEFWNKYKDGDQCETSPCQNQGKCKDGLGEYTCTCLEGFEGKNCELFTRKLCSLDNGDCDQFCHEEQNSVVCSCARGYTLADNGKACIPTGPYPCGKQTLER

| Compound | Ratio: FXa/FXIa [1] | Ratio: Trypsin/FXIa [2] | IC50 [3] [nM] | half-life at 2 μM [4] [h] |
| --- | --- | --- | --- | --- |
| CC[C@@H](NC(=O)N1C(=O)[C@H](Cc2cc(C)nc(N)c2)[C@H]1C(=O)N(C)c1ccnn1C)c1ccc(C)c(F)c1 [Compound 1-155, (2S,3R)-3-((2-amino-6-methylpyridin-4-yl)methyl)-N2-(1-methyl-1H-pyrazol-5-yl)-N1-((R)-1-(3-fluoro-4-methylphenyl)propyl)-N2-methyl-4-oxoazetidine-1,2-dicarboxamide] | I (“I” indicates > 500) | G (“G” indicates 1-100) | < 10 | 2.02 to 4 |
| CC[C@@H](NC(=O)N1C(=O)[C@H](Cc2ccnc(N)c2)[C@H]1C(=O)N(C)c1ccn(C)n1)C1CCCCC1 [Compound 1-47, (2S,3R)-3-((2-aminopyridin-4-yl)methyl)-N2-(1-methyl-1H-pyrazol-3-yl)-N1-((R)-1-cyclohexylpropyl)-N2-methyl-4-oxoazetidine-1,2-dicarboxamide] | I (“I” indicates > 500) | G (“G” indicates 1-100) | < 10 | 1.02 to 2 |
| CC[C@@H](NC(=O)N1C(=O)[C@H](Cc2cc(C)nc(N)c2)[C@H]1C(=O)N(C)c1cnn(C)c1)c1cccc(Cl)c1 [Compound 1-15, (2S,3R)-3-((2-amino-6-methylpyridin-4-yl)methyl)-N2-(1-methyl-1H-pyrazol-4-yl)-N1-((R)-1-(3-chlorophenyl)propyl)-N2-methyl-4-oxoazetidine-1,2-dicarboxamide] | H (“H” indicates 101-1000) | G (“G” indicates 1-100) | 10 to 100 | > 4 |
| CC[C@@H](NC(=O)N1C(=O)[C@H](Cc2cc(C)nc(NC)c2)[C@H]1C(=O)N(C)c1nccn1C)c1ccccc1 [Compound 1-45, (2S,3R)-3-((2-methylamino-6-methylpyridin-4-yl)methyl)-N2-(1-methyl-1H-imidazol-2-yl)-N1-((R)-1-phenylpropyl)-N2-methyl-4-oxoazetidine-1,2-dicarboxamide] | I (“I” indicates > 500) | G (“G” indicates 1-100) | 10 to 100 | 2.02 to 4 |
| CC[C@@H](NC(=O)N1C(=O)[C@H](Cc2cc(C)nc(N)c2)[C@H]1C(=O)N(C)c1ccnn1C)c1ccc(C)c(C)c1 [Compound 1-152, (2S,3R)-3-((2-amino-6-methylpyridin-4-yl)methyl)-N2-(1-methyl-1H-pyrazol-5-yl)-N1-((R)-1-(3,4-dimethylphenyl)propyl)-N2-methyl-4-oxoazetidine-1,2-dicarboxamide] | I (“I” indicates > 500) | G (“G” indicates 1-100) | < 10 | 1.02 to 2 |
| C[C@@H](NC(=O)N1C(=O)[C@H](Cc2ccnc(N)c2)[C@H]1C(=O)N(C)c1ccn(C)n1)C1CCCCC1 [Compound 1-50, (2S,3R)-3-((2-aminopyridin-4-yl)methyl)-N2-(1-methyl-1H-pyrazol-3-yl)-N1-((R)-1-cyclohexylethyl)-N2-methyl-4-oxoazetidine-1,2-dicarboxamide] | I (“I” indicates > 500) | G (“G” indicates 1-100) | 10 to 100 | 1.02 to 2 |
| CC[C@@H](NC(=O)N1C(=O)[C@H](Cc2ccnc(N)c2)[C@H]1C(=O)N(C)c1ccnn1C)C1CCCCC1 [Compound 1-63, (2S,3R)-3-((2-aminopyridin-4-yl)methyl)-N2-(1-methyl-1H-pyrazol-5-yl)-N1-((R)-1-cyclohexylpropyl)-N2-methyl-4-oxoazetidine-1,2-dicarboxamide] | I (“I” indicates > 500) | G (“G” indicates 1-100) | < 10 | < 1 |
| CC[C@@H](NC(=O)N1C(=O)[C@H](Cc2cc(C)nc(N)c2)[C@H]1C(=O)N(C)c1nccn1C)c1ccccc1 [Compound 1-51, (2S,3R)-3-((2-amino-6-methylpyridin-4-yl)methyl)-N2-(1-methyl-1H-imidazol-2-yl)-N1-((R)-1-phenylpropyl)-N2-methyl-4-oxoazetidine-1,2-dicarboxamide] | I (“I” indicates > 500) | G (“G” indicates 1-100) | < 10 | > 4 |
| CC(C)[C@@H](NC(=O)N1C(=O)[C@H](Cc2ccnc(N)c2)[C@H]1C(=O)N(C)c1ccn(C)n1)C1CCCCC1 [Compound 1-57, (2S,3R)-3-((2-aminopyridin-4-yl)methyl)-N2-(1-methyl-1H-pyrazol-3-yl)-N1-((R)-1-cyclohexyl-2-methylpropyl)-N2-methyl-4-oxoazetidine-1,2-dicarboxamide] | I (“I” indicates > 500) | G (“G” indicates 1-100) | 10 to 100 | < 1 |
| CN(C(=O)[C@@H]1[C@@H](Cc2ccnc(N)c2)C(=O)N1C(=O)N[C@@H](C1CCCCC1)C1CC1)c1ccn(C)n1 [Compound 1-58, (2S,3R)-3-((2-aminopyridin-4-yl)methyl)-N2-(1-methyl-1H-pyrazol-3-yl)-N1-((R)-cyclohexyl-cyclopropylmethyl)-N2-methyl-4-oxoazetidine-1,2-dicarboxamide] | I (“I” indicates > 500) | G (“G” indicates 1-100) | < 10 | < 1 |
| CC[C@@H](NC(=O)N1C(=O)[C@H](Cc2cc(C)nc(N)c2)[C@H]1C(=O)N(C)c1ccnn1C)C1CCCCC1 [Compound 1-67, (2S,3R)-3-((2-amino-6-methylpyridin-4-yl)methyl)-N2-(1-methyl-1H-pyrazol-5-yl)-N1-((R)-1-cyclohexylpropyl)-N2-methyl-4-oxoazetidine-1,2-dicarboxamide] | I (“I” indicates > 500) | G (“G” indicates 1-100) | 10 to 100 | 1.02 to 2 |
| CC[C@@H](NC(=O)N1C(=O)[C@H](Cc2ccnc(N)c2)[C@H]1C(=O)N(C)c1ccnn1C)c1ccccc1 [Compound 1-92, (2S,3R)-3-((2-aminopyridin-4-yl)methyl)-N2-(1-methyl 1H-pyrazol-5-yl)-N1-((R)-1-phenylpropyl)-N2-methyl-4-oxoazetidine-1,2-dicarboxamide] | I (“I” indicates > 500) | G (“G” indicates 1-100) | < 10 | 2.02 to 4 |
| CC[C@@H](NC(=O)N1C(=O)[C@H](Cc2ccnc(N)c2)[C@H]1C(=O)N(C)c1nccn1C)c1ccccc1 [Compound 1-13, (2S,3R)-3-((2-aminopyridin-4-yl)methyl)-N2-(1-methyl-1H-imidazol-2-yl)-N1-((R)-1-phenylpropyl)-N2-methyl-4-oxoazetidine-1,2-dicarboxamide] | I (“I” indicates > 500) | G (“G” indicates 1-100) | < 10 | 2.02 to 4 |
| CC[C@@H](NC(=O)N1C(=O)[C@H](Cc2ccnc(N)c2)[C@H]1C(=O)N(C)c1ccn(C)n1)c1ccccc1 [Compound 1-3, (2S,3R)-3-((2-aminopyridin-4-yl)methyl)-N2-(1-methyl-1H-pyrazol-3-yl)-N1-((R)-1-phenylpropyl)-N2-methyl-4-oxoazetidine-1,2-dicarboxamide] | I (“I” indicates > 500) | G (“G” indicates 1-100) | < 10 | > 4 |
